Data from patent US20240101570A1 (AMGEN INC., priority 2020, published 2024).

Columns and labels:
HCT116 WT cells = test: HCT116 WT cell proliferation / viability (CellTiter-Glo, 6 days); type: cell-based; settings: Homo sapiens, HCT-116, 144 h, HCT116 WT cells, 6 days, CellTiter-Glo; read-out: HCT-116 WT IC50
Outline: (§1)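 CellTiter-Glo luminescence, 6-day exposure, RPMI 1640 + 10% FBS. Dosing: 1:3 series (8-9 pts, top 1 or 10 μM) or 1:2 series (22 pts, top 10 or 50 μM), DMSO control. IC50 = 50% of control via curve fit.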

HCT116 MTAP null cells = test: HCT116 MTAP null cell proliferation / viability (CellTiter-Glo, 6 days); type: cell-based; settings: HCT116-MTAP null, 144 h, HCT116 MTAP null cells, 6 days, CellTiter-Glo; read-out: HCT-116 MTAP null IC50
Outline: as §1

CC(c1ncc(C(F)(F)F)cc1C#N)N(C)C(=O)c1cc2c(cc1F)nc(N)c1cnn(C)c12 (stereo not drawn) [Example 936, 4-amino-N-(1-(3-cyano-5-(trifluoromethyl)pyridin-2-yl)ethyl)-7-fluoro-N,1-dimethyl-1H-pyrazolo[4,3-c]quinoline-8-carboxamide]
IC50 (HCT116 WT cells): 18700 nM | IC50 (HCT116 MTAP null cells): 721 nM

CN(Cc1ccc(C2CC2)cn1)C(=O)c1cc2c3c(c(N)nc2cc1Cl)COC3 [Example 478, 4-amino-7-chloro-N-((5-cyclopropyl-2-pyridinyl)methyl)-N-methyl-1,3-dihydrofuro[3,4-c]quinoline-8-carboxamide]
IC50 (HCT116 WT cells): 9580 nM | IC50 (HCT116 MTAP null cells): 82 nM

CN(Cc1ccc(C(F)F)cn1)C(=O)c1cc2c(cc1F)nc(N)c1cnn(C)c12 [Example 525, 4-amino-N-((5-(difluoromethyl)-2-pyridinyl)methyl)-7-fluoro-N,1-dimethyl-1H-pyrazolo[4,3-c]quinoline-8-carboxamide]
IC50 (HCT116 WT cells): 2120 nM | IC50 (HCT116 MTAP null cells): 32 nM

CN(Cc1ccc(C(F)(F)F)cn1)C(=O)c1ccc2nc(N)c3c(c2c1)COC3(C)C [Example 932, 4-amino-N,3,3-trimethyl-N-((5-(trifluoromethyl)pyridin-2-yl)methyl)-1,3-dihydrofuro[3,4-c]quinoline-8-carboxamide]
IC50 (HCT116 WT cells): 1700 nM | IC50 (HCT116 MTAP null cells): 860 nM

CC(C)N(Cc1ccc(C(F)(F)F)nn1)C(=O)c1cc2c3c(c(N)nc2cc1F)COC3 [Example 358, 4-amino-7-fluoro-N-(2-propanyl)-N-((6-(trifluoromethyl)-3-pyridazinyl)methyl)-1,3-dihydrofuro[3,4-c]quinoline-8-carboxamide]
IC50 (HCT116 WT cells): 8160 nM | IC50 (HCT116 MTAP null cells): 121 nM

CC(C)N(Cc1ccc(C#N)cn1)C(=O)c1cc2c3c(c(N)nc2cn1)COC3 [Example 346, 4-amino-N-((5-cyano-2-pyridinyl)methyl)-N-(2-propanyl)-1,3-dihydrofuro[3,4-c][1,7]naphthyridine-8-carboxamide]
IC50 (HCT116 WT cells): 19400 nM | IC50 (HCT116 MTAP null cells): 1090 nM

C[C@H](c1ncccn1)N(Cc1ccc(C2CC2)nn1)C(=O)c1ccc2nc(N)c3c(c2c1)CO[C@@H]3C [Example 329, (3R)-4-amino-N-((6-cyclopropyl-3-pyridazinyl)methyl)-3-methyl-N-((1R)-1-(2-pyrimidinyl)ethyl)-1,3-dihydrofuro[3,4-c]quinoline-8-carboxamide]
IC50 (HCT116 WT cells): 160 nM | IC50 (HCT116 MTAP null cells): 22 nM

CO[C@@H]1CCOC[C@H]1N(Cc1ccc(C(F)(F)F)cn1)C(=O)c1ccc2nc(N)c3c(c2c1)COC3 (racemic) [Example 460, 4-amino-N-((3R,4R)-4-methoxytetrahydro-2H-pyran-3-yl)-N-((5-(trifluoromethyl)-2-pyridinyl)methyl)-1,3-dihydrofuro[3,4-c]quinoline-8-carboxamide and 4-amino-N-((3S,4S)-4-methoxytetrahydro-2H-pyran-3-yl)-N-((5-(trifluoromethyl)-2-pyridinyl)methyl)-1,3-dihydrofuro[3,4-c]quinoline-8-carboxamide]
IC50 (HCT116 WT cells): 287 nM | IC50 (HCT116 MTAP null cells): 19 nM

Nc1nc2ccc(C(=O)N(Cc3ccc(C(F)(F)F)cn3)CC3CC3)cc2c2c1COC2 [Example 300, 4-amino-N-(cyclopropylmethyl)-N-[[5-(trifluoromethyl)-2-pyridyl]methyl]-1,3-dihydrofuro[3,4-c]quinoline-8-carboxamide]
IC50 (HCT116 WT cells): 1340 nM | IC50 (HCT116 MTAP null cells): 41 nM

CCN(Cc1ccc(Br)nn1)C(=O)c1cc2c3c(c(N)nc2cn1)COC3 [Example 710, 4-amino-N-((6-bromo-3-pyridazinyl)methyl)-N-ethyl-1,3-dihydrofuro[3,4-c][1,7]naphthyridine-8-carboxamide]
IC50 (HCT116 WT cells): > 10000 nM | IC50 (HCT116 MTAP null cells): 484 nM

C[C@H]1OCc2c1c(N)nc1ccc(C(=O)N(C)Cc3ccc(C(F)(F)F)cn3)cc21 [Example 376, (3R)-4-amino-N,3-dimethyl-N-((5-(trifluoromethyl)-2-pyridinyl)methyl)-1,3-dihydrofuro[3,4-c]quinoline-8-carboxamide]
IC50 (HCT116 WT cells): 15200 nM | IC50 (HCT116 MTAP null cells): 222 nM

CN(Cc1ccc(S(F)(F)(F)(F)F)cc1)C(=O)c1ccc2nc(N)c3c(c2c1)COC3 [Example 510, 4-amino-N-methyl-N-(4-(pentafluoro-lambda~6~- sulfanyl)benzyl)-1,3-dihydrofuro[3,4-c]quinoline-8-carboxamide]
IC50 (HCT116 WT cells): 2660 nM | IC50 (HCT116 MTAP null cells): 65 nM

CC(C)N(Cc1ccc(C(F)(F)F)cn1)C(=O)c1ccc2[nH]c(=O)n3nccc3c2c1 [Example 431, 5-oxo-N-(2-propanyl)-N-((5-(trifluoromethyl)-2-pyridinyl)methyl)-5,6-dihydropyrazolo[1,5-c]quinazoline-9-carboxamide]
IC50 (HCT116 WT cells): 23500 nM | IC50 (HCT116 MTAP null cells): 14300 nM

C[C@H](c1cnc(C(F)(F)F)cn1)N(C)C(=O)c1ccc2nc(N)c3c(c2c1)COC3 [Example 774, 4-amino-N-methyl-N-((1R)-1-(5-(trifluoromethyl)-2-pyrazinyl)ethyl)-1,3-dihydrofuro[3,4-c]quinoline-8-carboxamide]
IC50 (HCT116 WT cells): 40600 nM | IC50 (HCT116 MTAP null cells): 736 nM

CC(C)N(Cc1ccc(C2CC2)nc1)C(=O)c1ccc2nc(N)c3c(c2c1)CO[C@@H]3C [Example 350, (3R)-4-amino-N-((6-cyclopropyl-3-pyridinyl)methyl)-3-methyl-N-(2-propanyl)-1,3-dihydrofuro[3,4-c]quinoline-8-carboxamide]
IC50 (HCT116 WT cells): 22100 nM | IC50 (HCT116 MTAP null cells): 332 nM

C[C@H](c1ncn(C)n1)N(Cc1ccc(C(F)F)cn1)C(=O)c1ccc2nc(N)c3c(c2c1)COC3 [Example 662, 4-amino-N-((5-(difluoromethyl)-2-pyridinyl)methyl)-N-((1R)-1-(1-methyl-1H-1,2,4-triazol-3-yl)ethyl)-1,3-dihydrofuro[3,4-c]quinoline-8-carboxamide]
IC50 (HCT116 WT cells): 290 nM | IC50 (HCT116 MTAP null cells): 29 nM

COC[C@@H](C)N(Cc1ccc(Br)nn1)C(=O)c1ccc2nc(N)c3c(c2c1)COC3 [Example 463, 4-amino-N-((6-bromo-3-pyridazinyl)methyl)-N-((2R)-1-methoxy-2-propanyl)-1,3-dihydrofuro[3,4-c]quinoline-8-carboxamide]
IC50 (HCT116 WT cells): 440 nM | IC50 (HCT116 MTAP null cells): 14 nM

CC1(C)OCc2c1c(N)nc1ccc(C(=O)N(Cc3ccc(C(F)(F)F)cn3)C3CC3)cc21 [Example 935, 4-amino-N-cyclopropyl-3,3-dimethyl-N-((5-(trifluoromethyl)pyridin-2-yl)methyl)-1,3-dihydrofuro[3,4-c]quinoline-8-carboxamide]
IC50 (HCT116 WT cells): > 1000 nM | IC50 (HCT116 MTAP null cells): 630 nM

CC1OCc2c1c(N)nc1ccc(C(=O)N(Cc3ccc(C(F)(F)F)cn3)C3CCOC3)cc21 (stereo not drawn) [Example 899, 4-amino-3-methyl-N-(tetrahydrofuran-3-yl)-N-((5-(trifluoromethyl)pyridin-2-yl)methyl)-1,3-dihydrofuro[3,4-c]quinoline-8-carboxamide]
IC50 (HCT116 WT cells): 9700 nM | IC50 (HCT116 MTAP null cells): 130 nM

CCN(Cc1ccc(S(F)(F)(F)(F)F)cc1)C(=O)c1cc2c(cc1F)nc(N)c1cnn(C)c12 [Example 566, 4-amino-N-ethyl-7-fluoro-1-methyl-N-(4-(pentafluoro-lambda~6~-sulfanyl)benzyl)-1H-pyrazolo[4,3-c]quinoline-8-carboxamide]
IC50 (HCT116 WT cells): 181 nM | IC50 (HCT116 MTAP null cells): 13 nM

Nc1nc2cnc(C(=O)N(Cc3ccc(C(F)(F)F)cn3)CC3CC3)cc2c2c1COC2 [Example 652, 4-amino-N-(cyclopropylmethyl)-N-((5-(trifluoromethyl)pyridin-2-yl)methyl)-1,3-dihydrofuro[3,4-c][1,7]naphthyridine-8-carboxamide]
IC50 (HCT116 WT cells): 1390 nM | IC50 (HCT116 MTAP null cells): 50 nM
